Results as given in paper PMC8098127, “A new crystal form of GABARAPL2” (Acta Crystallographica. Section F, Structural Biology …, 2021).

Target: T1, GABARAPL2 (Homo sapiens, UniProt P60520)
T1 construct: GST (N, cleaved yes); made in house; host or cells: E. coli BL21 (DE3)
Assay: Surface plasmon resonance (SPR) binding of GABARAPL2 to captured NDP52 I133W LIR peptide, steady state
Details: full-length GABARAPL2 (C-terminal Phe117 present) injected over N-terminal LC-biotin peptide on streptavidin chip, BIAcore S200, 10 mM HEPES, 150 mM NaCl, 3.4 mM EDTA, 0.05% Tween pH 7.4, threefold, ten-step dilution series, injected 160 s, 800 s dissociation, steady-state fit, report point 145 s after injection
Experimental: GABARAPL2 was expressed and purified as described previously (Muhlinen et al., 2012[▸]). Briefly, Escherichia coli strain BL21 (DE3) cells were transformed with a pETM-30 plasmid harbouring the GABARAPL2 gene (Table 1 ▸). The cells were grown in 1 l Luria Broth (LB) medium supplemented with 100 mg l^−1 kanamycin at 37°C with agitation. Gene expression was induced when the cell density (OD600) reached approximately 0.6 by the addition of […] isopropyl β-D-1-thiogalactopyranoside (IPTG) for 3 h. Cell pellets were obtained by centrifugation at 5000g for 10 min and were lysed by sonication in lysis buffer (50 mM Tris pH 8.0, 150 mM NaCl, 1 mM EDTA) at 4°C. The lysate was clarified by centrifugation at 45 000g for 45 min and was filtered through a […] filter and immobilized on a column containing 1 ml Gluthathione Sepharose 4B resin (GE Life Sciences). GABARAPL2 was cleaved from the GST fusion protein on-column with 200 µg TEV protease and 0.5 mM TCEP overnight at 4°C. […]
Surface plasmon resonance (SPR) binding assays were performed using a BIAcore S200 in SPR buffer consisting of 10 mM HEPES, 150 mM NaCl, 3.4 mM EDTA, 0.05% Tween pH 7.4. […] The sensorgrams were analysed at steady state using a report point 145 s after injection, averaging the response over 5 s. […]

T1 sequence (P60520 with tags, fused parts or gaps): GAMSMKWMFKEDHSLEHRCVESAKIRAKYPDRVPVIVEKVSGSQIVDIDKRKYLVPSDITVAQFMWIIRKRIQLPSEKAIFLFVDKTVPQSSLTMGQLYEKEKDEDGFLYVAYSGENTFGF

CC(C)C[C@H](NC(=O)[C@H](Cc1c[nH]c2ccccc12)NC(=O)[C@H](CC(=O)O)NC(=O)[C@H](CCC(=O)O)NC(=O)[C@H](CCC(=O)O)NC(=O)[C@H](CC(N)=O)NC(=O)[C@@H](N)CCC(=O)O)C(=O)N[C@H](C(=O)N[C@H](C(=O)N[C@H](C(=O)N[C@H](C(=O)N[C@@H](CCC(N)=O)C(=O)NCC(=O)N[C@@H](CCC(=O)O)C(=O)O)[C@@H](C)O)[C@@H](C)O)C(C)C)C(C)C [NDP52 I133W LIR peptide, ENEEDWLVVTTQGE]
Kd (SPR Experiment 1): 4.85 µM
Kd (SPR Experiment 2): 5.07 µM
